The source of these data is US7176239B2, “Methods and compositions for treatment of Ataxia-telangeictasia” (priority 2003, dated 2007).

One data set concerns AT cells (AT22). Nature of the data set: Colony forming-efficiency assay, cell survival with increasing CuCl2. The class given is cell-based, human. The following applies: AT22 versus VA13 cells, increasing concentrations of CuCl2; FIG. 4A. The method, then: Colony forming-efficiency experiments were performed as previously described (See R. E. Shackelford et al. The Ataxia telangiectasia Gene Product Is Required for Oxidative Stress-induced G1 and G2 Checkpoint Function in Human Fibroblasts, 276 J. BIOL. CHEM. 21951-21959 (2001)). In brief, exponentially growing cells were plated at 2,000 cells/100 mm tissue culture dish in 10 ml appropriate media, allowed to adhere 6 h, […], aspirin, diethylenetriaminepentaacetic acid (DTPA), hygromycin, and desferrioxamine mesylate were obtained from Sigma Chemical Corp (St. Louis, Mo.). Fetal calf serum (FCS) and Dulbecco's Modified Eagle's Medium (DMEM) were obtained from Invitrogen (Rockville, Md.). Culture dishes were obtained from Becton Dickinson (Franklin Lakes, N.J.).
Following treatment, the pates were washed 2× with media, the media replaced, and colonies fixed and stained after 14 days in culture by water: methanol addition (1:1) containing crystal violet (1 g/L). Colonies consisting of cell clusters containing greater than 50 cells were counted under a dissecting microscope. […] Standard deviations (error bars) were calculated from each experimental data point divided by the mean untreated value and averaged between experiments to obtain the mean standard deviation. […]

In another data set the test system is ATDM-1, and ATDM-2 cells. Briefly: Mitotic delay assay (mitotic index after FeCl2 treatment). The data set is classed as cell-based, human. The conditions noted are these: increasing concentrations of FeCl2, 15 min treatment, 2 h culture; NHF1 cells for comparison; fluorescence microscopy; FIG. 3. The procedure: Mitotic delay assays were performed as previously described (See R. E. Shackelford et al. The Ataxia telangiectasia Gene Product Is Required for Oxidative Stress-induced G1 and G2 Checkpoint Function in Human Fibroblasts, 276 J. BIOL. CHEM. 21951–21959 (2001)). In brief, cells were plated onto 100 mm tissue culture plates and incubated 48–72 h (to approximately 50% confluency). The cells were then treated with FeCl2 for 15 m as in the colony forming-efficiency assay, washed 2× with media, cultured 2 h, and the media was removed. The cells were fixed in 5 ml cold methanol for 10 min and air-dried. The cells were stained with 0.2 μg/ml 4′,6-diamidino-2-phenylindole (DAPI) in water and examined by fluorescence microscopy. The percentage of mitotic cells (mitotic delay) was determined by counts of 5,000 cells. Mitotic delay experiments were performed in triplicate and the standard deviations were calculated as in the colony forming-efficiency assays. (FIG. 3).

A further data set concerns AT cells. The following applies: AT cells treated with the antioxidant; Gatei et al. 2001; cited from earlier work.
In data set [1] the test system is AT cells (AT22, ATDM-1, ATDM-2). Briefly: Colony forming-efficiency assay, desferrioxamine/aspirin pretreatment then t-BOOH toxicity. The class given is cell-based, human. The following applies: for resistance to the toxic effects of t-BOOH exposure versus length of pretreatment / resistance to the toxic effects of t-BOOH versus concentration of pretreatment agent: AT22 cells; for resistance to the toxic effects of t-BOOH exposure versus length of pretreatment / resistance to t-BOOH toxicity (cell survival, percentage of untreated cells): desferrioxamine 100 μM, aspirin 0.3 mM; for resistance to the toxic effects of t-BOOH exposure versus length of pretreatment: FIG. 9; for resistance to the toxic effects of t-BOOH versus concentration of pretreatment agent: increasing concentrations of desferrioxamine or aspirin, FIG. 10A/10B; for resistance to t-BOOH toxicity (cell survival, percentage of untreated cells): pretreatment, increasing concentrations of t-BOOH, FIG. 8A. The procedure:
Colony forming-efficiency experiments were performed as previously described (See R. E. Shackelford et al. The Ataxia telangiectasia Gene Product Is Required for Oxidative Stress-induced G1 and G2 Checkpoint Function in Human Fibroblasts, 276 J. BIOL. CHEM. 21951-21959 (2001)). In brief, exponentially growing cells were plated at 2,000 cells/100 mm tissue culture dish in 10 ml appropriate media, allowed to adhere 6 h, and treated 15 min with varying concentrations of t-BOOH or FeCl2 FeCl2, aspirin, diethylenetriaminepentaacetic acid (DTPA), hygromycin, and desferrioxamine mesylate were obtained from Sigma Chemical Corp (St. Louis, Mo.). Fetal calf serum (FCS) and Dulbecco's Modified Eagle's Medium (DMEM) were obtained from Invitrogen (Rockville, Md.). Culture dishes were obtained from Becton Dickinson (Franklin Lakes, N.J.).
Following treatment, the pates were washed 2× with media, the media replaced, and colonies fixed and stained after 14 days in culture by water: methanol addition (1:1) containing crystal violet (1 g/L). Colonies consisting of cell clusters containing greater than 50 cells were counted under a dissecting microscope. Unless otherwise noted, where desferrioxamine and/or aspirin pretreatment was employed, the cells were plated in desferrioxamine, aspirin, or desferrioxamine and aspirin, and allowed to adhere for 6 h. The plates were then washed 4× with media and treated with t-BOOH as above. Data indicates survival as a percentage of untreated cells. The AT22 and VA13 tumor cell lines were used at passages 20–40. The primary NHF1, ATDM-1, and ATDM-2 cell strains were used at passages 6–18. pEBS7 and pEBS7-YZ5 cells were used at passages 15–20. All experiments were done at least twice in triplicate. Standard deviations (error bars) were calculated from each experimental data point divided by the mean untreated value and averaged between experiments to obtain the mean standard deviation. (FIGS. 6–10B).

Data set [2] has the same test system. Nature of the data set: Colony forming-efficiency assay, long-term culture with iron chelating agent or quercetin. The data set is classed as cell-based, human. The following applies: long-term culture (14 days) with increasing concentrations; FIG. 11A, 13A. The method, then:
Preparation of cells is as described previously in Example 1. Colony forming-efficiency experiments were performed as previously described (See R. E. Shackelford et al. The Ataxia telangiectasia Gene Product Is Required for Oxidative Stress-induced G1 and G2 Checkpoint Function in Human Fibroblasts, 276 J. BIOL. CHEM. 21951–21959 (2001)). In brief, exponentially growing cells were plated at 2,000 cells/100 mm tissue culture dish in 10 ml appropriate media with an added iron chelating agent and cultured for 14 days. The resulting colonies were fixed and stained after 14 days culture by water:methanol addition (1:1) containing crystal violet (1 g/L). Colonies consisting of cell clusters containing greater than 50 cells were counted under a dissecting microscope. For experiments involving apoferritin or quercetin pre-exposure on t-BOOH resistance, the cells were allowed to adhere 6 h in increasing aopferritin or quercetin concentrations, washed 4× with 3 ml media, treated with 10 mM t-BOOH, washed 1× with 3 ml media, and allowed to grow for 14 days in 10 ml appropriate media. Data indicates survival as a percentage of untreated cells. […] Standard deviations (error bars) were calculated from each experimental data point divided by the mean untreated value and averaged between triplicate experiments to obtain the mean standard deviation. […]

For data set [3], the system named is normal cells (VA13, NHF1). Briefly: Colony forming-efficiency assay, apoferritin/quercetin pretreatment then t-BOOH toxicity. The data set is classed as cell-based, human. The following applies: 6 h pretreatment with increasing concentrations, then 10 mM t-BOOH, FIG. 12A, 14A. The method, then:
(§1) Preparation of cells is as described previously in Example 1. Colony forming-efficiency experiments were performed as previously described (See R. E. Shackelford et al. The Ataxia telangiectasia Gene Product Is Required for Oxidative Stress-induced G1 and G2 Checkpoint Function in Human Fibroblasts, 276 J. BIOL. CHEM. 21951–21959 (2001)). In brief, exponentially growing cells were plated at 2,000 cells/100 mm tissue culture dish in 10 ml appropriate media with an added iron chelating agent and cultured for 14 days. The resulting colonies were fixed and stained after 14 days culture by water:methanol addition (1:1) containing crystal violet (1 g/L). Colonies consisting of cell clusters containing greater than 50 cells were counted under a dissecting microscope. For experiments involving apoferritin or quercetin pre-exposure on t-BOOH resistance, the cells were allowed to adhere 6 h in increasing aopferritin or quercetin concentrations, washed 4× with 3 ml media, treated with 10 mM t-BOOH, washed 1× with 3 ml media, and allowed to grow for 14 days in 10 ml appropriate media. Data indicates survival as a percentage of untreated cells. The AT22 and VA13 tumor cell lines were used at passages 20–40. The primary NHF1, ATDM-1, and ATDM-2 cell strains were used at passages 6–19. All experiments were done at least twice in triplicate. Standard deviations (error bars) were calculated from each experimental data point divided by the mean untreated value and averaged between triplicate experiments to obtain the mean standard deviation. (FIGS. 11A–14C).

Data set [4] has as its system AT cells (AT22, ATDM-1, ATDM-2). The description is as above. The class given is cell-based, human. The conditions noted are these: 6 h pretreatment with increasing concentrations, then 10 mM t-BOOH, FIG. 12A, 14A. The method, then: as §1

Where a name gives a salt, the structure may show the parent alone.

As to `[Cl][Cu][Cl]` [CuCl2], the “cell survival (percentage of untreated cells), sensitivity to CuCl2” value with AT cells (AT22) is “increased sensitivity”.
Turning to `[Cl][Fe][Cl]` [FeCl2], in the data set with ATDM-1, and ATDM-2 cells, the “mitotic activity (percentage of the mitotic index of the mock-treated population), G2 checkpoint” value is reported as “induces a pATM-dependent G2 checkpoint”.
On to `O=C(O)CCCCC1CCSS1` (stereo not drawn) [a-lipoic acid], for which the genotoxic stress-induced proteins entry with AT cells is “lowered”.
For the compound `CC(=O)Oc1ccccc1C(=O)O` [aspirin], in data set [1], the “resistance to the toxic effects of t-BOOH exposure versus length of pretreatment” value was “increases with longer exposure”; the “resistance to the toxic effects of t-BOOH versus concentration of pretreatment agent” value is “increase the resistance”; the “resistance to t-BOOH toxicity (cell survival, percentage of untreated cells)” value is “increased resistance to t-BOOH toxicity”.
For `CC(=O)N(O)CCCCCNC(=O)CCC(=O)N(O)CCCCCNC(=O)CCC(=O)N(O)CCCCCN` [desferrioxamine, desferrioxamine mesylate], in that order: “increases with longer exposure”, “increase the resistance” and “increased resistance to t-BOOH toxicity”.
For the compound `O=c1c(O)c(-c2ccc(O)c(O)c2)oc2cc(O)cc(O)c12` [quercetin], the “plating efficiency (cell survival, percentage of untreated cells)” value in data set [2] was “increases the plating efficiency”. The “resistance to t-BOOH toxicity (cell survival, percentage of untreated cells)” value in data set [3] and in data set [4] was “increased resistance to t-BOOH toxicity” in each case.
apoferritin: the “plating efficiency (cell survival, percentage of untreated cells)” value in data set [2] was “increases the plating efficiency”. Also, the “resistance to t-BOOH toxicity (cell survival, percentage of untreated cells)” value in data set [3] and in data set [4] was “increased resistance to t-BOOH toxicity” each time.
